Laboratory results: patent US7442532B2, “Essential fungal CaYLR100w polypeptides, and methods of use” (Bristol-Myers Squibb Company, priority 2003, dated 2008)
In brackets after ≈: the same amount, converted by molar mass.

Columns and labels:
[1] = system: MET3P-ERG1 construct; experiment: Sensitivity of the MET3P-ERG1 construct to antifungal drugs (MICs, 96-well format plate); assay type: cell-based, Candida albicans; conditions: for MIC: Candida albicans, at 20 hrs, MET3P-ERG1 construct; for sensitivity to the drug altered by the presence of methionine: drugs not known to be inhibitors of the CaERG1 product
Procedure: In order to assess whether cells containing the ERG1−MET promoter construct would display hypersensitivity to terbinafine upon the addition of methionine in comparison to cells for which no methionine was added, cells were grown in the 384 well-plate as described above. A final concentration of 0.05 mM methinone was added to wells within one plate of cells and a control plate, in which SD+His broth was added in lieu of methionine was added to a second plate. 8 μl of various concentrations of terbinafine in 10.26% DMSO was added to both the control and test plates. The concentrations of terbinafine added to different wells ranged from 163 μg/ml to 0.02 μg/ml. […] After the addition of this inhibitor, both the control and experimental plates were incubated at 35° C. After 18 hours of incubation, the OD readings were taken of the plates to measure cell growth (595 nm). […] Increased sensitivity of cells containing the ERG1−MET3 was confirmed in a separate experiment using a 96-well format plate.
Furthermore, results of additional experiments conducted with the drugs sordarin and fluconazole which are not known to be inhibitors of the CaERG1 polynucleotide product confirm that sensitivity to these drugs is not altered by the presence of methionine.

[2] = system: ergosterol biosynthetic pathway in strain caerg1Δ/PMET3-CaERG1; experiment: Incorporation of labeled acetate into sterols (TLC, scintillation counting), control strain; assay type: cell-based, Candida albicans; conditions: FIG. 22A, lanes 1 and 2; 90 minute induction period
Procedure: (§1) Overnight cultures were diluted into fresh SD+histidine (His) broth and grown at 30° C. until logarithmic growth was established. Cultures were harvested by centrifugation. Cells were then separated into tubes at a final density of 0.25 OD600 containing either fresh SD+His broth or SD+His broth containing 5 mM methionine (Met) and 2.5 mM cysteine (Cys). At the end of either a 0.75, 1.5, 3 or 4.5 hour incubation period, the OD600 values of each tube were measured and cultures were adjusted to a density of 0.25 OD600 units per ml (2 mls per tube). Cultures were then pulsed with 2 μCi/tube of [^3H]-acetic acid for 60 minutes.
(§2) At the end of the labeling period, cells were pelleted and rinsed 1× with medium. The washed pellet was resuspended with 1 ml of 0.1 N HCl, transferred to glass screw-capped tubes, and incubated for 5 minutes at 85° C. […]
(§3) Dried samples were disolved in petroleum ether and spotted onto a 20 cm×20 cm silica gel 60 TLC plate. […] The location of radiolabeled spots on the TLC plate was determined by matching the exposed spots on the autoradiogram.
(§4) In order to quantitate the radioactivity associated with the ergosterol pathway products, the silica gel corresponding to the exposed spots was excised from the plate and mixed with 0.5 ml of water, then mixed with 5 mls of scintillation cocktail prior to scintillation counting. […]

[3] = system: MET3 promoter-CaERG1 cells; experiment: Drug hypersensitivity whole cell assay, 384-well plate: MET3 promoter-CaERG1 cells with and without methionine; assay type: cell-based, Candida albicans; conditions: 0.05 mM methionine, 18 hours at 35° C, OD 595 nm, FIG. 10
Procedure: In order to determine if essential polynucleotide products could be reduced in fungal cells resulting in drug hypersensitivity, a high throughput whole cell assay was designed. The known C. albicans essential polynucleotide corresponding ERG1 polynucleotide in S. cervisiae was tested. CaERG 1 codes for squaline epoxidase and is known to be inhibited by terbinafine. The first polynucleotide copy was disrupted as described above and the second polynucleotide copy was modified by promoter swapping with MET3 promoter, also as described above.
The optimal cell density needed to control cell growth in a 384-well plate within the log phase after 18 hours incubation at 35° C. was first determined. […] At different time intervals, the plate was withdrawn from the incubator and the cell growth was determined by reading absorbance at 590 nm on a Perkin Elmer 7000 machine.
In order to assess whether cells containing the ERG1−MET promoter construct would display hypersensitivity to terbinafine upon the addition of methionine in comparison to cells for which no methionine was added, cells were grown in the 384 well-plate as described above. […] After 18 hours of incubation, the OD readings were taken of the plates to measure cell growth (595 nm). […]

[4] = system: ergosterol biosynthetic pathway in strain fcg5Δ/PMET3-FCG5; experiment: Incorporation of labeled acetate into sterols (TLC, scintillation counting), test strain; assay type: cell-based, Candida albicans; conditions: FIG. 22B; majority of the counts trapped in squalene
Procedure: as §1, §2, §3, §4

[5] = system: MET3P-ERG1 construct; conditions: 0.5 mM methionine; growth monitored between 16 and 24 hours, OD 595 nm; FIG. 9
Procedure: Cells were diluted from these cultures to 757,002 cfu/ml in SD+His medium. 35 μl of the diluted cells were dispensed into wells of a 384-well plate containing 8 μl of 10.26% DMSO. […] Cell growth was monitored between 16 and 24 hours by reading the optical density at 595 nm.

Row | SMILES | increase in sensitivity when promoter activity was down regulated by the presence of methionine ([1]; 96-well format plate, Table 7) | MIC ([1]; presence of methionine) | effect on ergosterol biosynthesis (TLC autoradiogram) [2] | increase in sensitivity in the presence of methionine comparing to the no methionine control [3] | effect on incorporation of radiolabelled acetate into ergosterol (TLC autoradiogram) [4] | reduction of cell growth [5] | MIC ([1]; absence of methionine) | sensitivity to the drug altered by the presence of methionine [1]
1 | CN(C/C=C/C#CC(C)(C)C)Cc1cccc2ccccc12 [Terbinafine] | 16-32 fold | 0.5 µg/mL | a block in ergosterol biosynthesis at squalene | 4-8 fold | blocked the incorporation of radiolabelled acetate into ergosterol |  |  | 
2 | CSCC[C@H](N)C(=O)O [methionine] |  |  |  |  |  | approximately 50% |  | 
3 | OC(Cn1cncn1)(Cn1cncn1)c1ccc(F)cc1F [Fluconazole] |  | 1 µg/mL |  |  |  |  | 1 µg/mL (≈ 3.27 µM) | not altered
4 | CO[C@H]1[C@@H](O)[C@H](O)[C@H](OC[C@@]23C[C@@H]4[C@H](C)CC[C@H]4[C@@]4(C=O)CC2C=C(C(C)C)[C@@]34C(=O)O)O[C@@H]1C [Sordarin] |  | 0.5 µg/mL |  |  |  |  | 0.5 µg/mL (≈ 1.02 µM) | not altered
